This note sets out measurements from US5138069A (E. I. Du Pont de Nemours and Company, priority 1988, dated 1992).

Read-outs that look alike come from different tables or passages of the source. Some results are limits rather than exact numbers.

One experiment has as its system Renal Hypertensive Rats. Nature of the experiment: Antihypertensive effects in renal hypertensive rats.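 For all read-outs here: effective means a significant fall in blood pressure at the dose shown or below.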 Format: in vivo. To be noted: Rattus norvegicus; for minimal effective dose at 10 mg/kg / minimal effective dose at 100 mg/kg: Table 25; for minimal effective dose at 10 mg/kg: 10 mg/kg or less; for minimal effective dose at 100 mg/kg: 100 mg/kg or less. Here is the method: This procedure increases blood pressure by increasing renin production with consequent elevation of AII levels. Compounds are administered orally at 100 mg/kg and/or intravenously via a cannula in the jugular vein at 10 mg/kg. Arterial blood pressure is continuously measured directly through a carotid artery cannula and recorded using a pressure transducer and a polygraph. Blood pressure levels after treatment are compared to pretreatment levels to determine the antihypertensive effects of the compounds (See Table 25).
(§1) Compounds listed in Table 26 were tested in the same manner as described for Table 25, except that in the test for antihypertensive effects in renal hypertensive rats, the compounds were administered orally at 30 mg/kg and intravenously at 3 mg/kg.

The target in the next experiment is AII receptor. The experiment is described as follows: Angiotensin II receptor binding (displacement of 3H-AII). As to conditions: read-out: Angiotensin II Receptor Binding IC50, rat adrenal cortical microsomes, 2 nM 3H-AII, 1 hour, room temperature. Here is the method:
The assay was carried out according to the method described by [Glossmann et al., J. Biol. Chem., 249, 825 (1974)], but with some modifications. The reaction mixture contained rat adrenal cortical microsomes (source of AII receptor) in Tris buffer and 2 nM of ^3 H-AII with or without potential AII antagonist. This mixture was incubated for 1 hour at room temperature and the reaction was subsequently terminated by rapid filtration and rinsing through glass micro-fibre filter. Receptor-bound ^3 H-AII trapped in filter was quantitated by scintillation counting.
as §1
For orientation: In a radioligand displacement assay an active substance lowers the binding of a labelled ligand.

Where [1] appears, read: Table 25, tested as sodium salt.

In general, minimal effective dose refers to the lowest level tested that produced the effect sought. Lower therefore signals an effect from little substance. Usually IC50 stands for the concentration that gives 50% inhibition. On to `CCCCc1nc(Cl)c(CC(=O)OC)n1Cc1ccc(NC(=O)[C@@H]2CCCC[C@@H]2NS(=O)(=O)C(F)(F)F)cc1` (relative stereo) [Example 74 (cis compound), methyl 2-butyl-4-chloro-1-[4-(cis-2-(trifluoromethanesulfonamido)cyclohexanecarboxamido)benzyl]imidazole-5-acetate], for which, in the experiment with Renal Hypertensive Rats (intravenous), the minimal effective dose at 10 mg/kg was under 10 mg/kg. In the experiment with Renal Hypertensive Rats (oral), this molecule had a minimal effective dose at 100 mg/kg of over 100 mg/kg. Besides, the IC50 on AII receptor (Table 25) was found to be 4.5 µM.

In the case of `CCCCc1nc(Cl)c(CC(=O)OC)n1Cc1ccc(NC(=O)[C@@H]2CCCC[C@H]2NS(=O)(=O)C(F)(F)F)cc1` (relative stereo) [Example 74 (trans compound), Methyl 2-butyl-4-chloro-1-[4-(trans-2-(trifluoromethanesulfonamido)cyclohexanecarboxamido)benzyl]imidazole-5-acetate], in the experiment on Renal Hypertensive Rats (intravenous), the minimal effective dose at 10 mg/kg is under 10 mg/kg. This molecule showed a minimal effective dose at 100 mg/kg in the experiment on Renal Hypertensive Rats (oral) of over 100 mg/kg. The IC50 on AII receptor (Table 25) worked out at 3.9 µM.

In the experiment with Renal Hypertensive Rats (intravenous), `CCCCc1nc(CO)c(Cl)n1Cc1ccc(-c2occc2C(=O)O)cc1` (single isomer, unassigned) [Example 179, 2-n-butyl-1-[4-(3-carboxyfuran-2-yl)benzyl]-5-chloro-4-(hydroxymethyl)imidazole] returned a minimal effective dose at 10 mg/kg of under 10 mg/kg. The minimal effective dose at 100 mg/kg in the experiment with Renal Hypertensive Rats (oral) was over 100 mg/kg. For the same molecule, on AII receptor (Table 25), the IC50 was 4.4 µM.

Take `CCCCc1nc(Cl)c(CC(C)C(=O)N[C@H](C)c2ccccc2)n1Cc1ccc(NC(=O)c2ccccc2C(=O)O)cc1` (single isomer, unassigned) [Example 238, d and l 3-[1-(4-(2-Carboxybenzamido)benzyl-2-butyl-4-chloroimidazol-5-yl]-2-methylpropanoic acid, d-(+)-α-methylbenzylamide]: the minimal effective dose at 10 mg/kg in the experiment with Renal Hypertensive Rats (intravenous) is under 10 mg/kg. The molecule further displayed a minimal effective dose at 100 mg/kg in the experiment with Renal Hypertensive Rats (oral) of over 100 mg/kg. The IC50 at AII receptor (Table 25) was found to be 0.11 µM.

Turning to `CCCCc1nc(Cl)c(CC(C)C(=O)N[C@H](C)c2ccccc2)n1Cc1ccc(NC(=O)c2ccccc2C(=O)O)cc1` (single isomer, unassigned) [Example 239, d and l 3-[1-(4-(2-Carboxybenzamido)benzyl-2-butyl-4-chloroimidazol-5-yl]-2-methylpropanoic acid, d-(+)-α-methylbenzylamide], the IC50 at AII receptor (Table 25) came to 0.12 µM.

Turning to `CCCCc1nc(Cl)c(CC(=O)OC)n1Cc1ccc(NC(=O)/C=C\C(=O)O)cc1` [Example 6], the IC50 at AII receptor (Table 25) is 5.7 µM.

Regarding `CCCCc1nc(Cl)c(CC(=O)OC)n1Cc1ccc(NC(=O)c2cc3ccccc3cc2C(=O)O)cc1` [Example 9], at AII receptor (setting [1]), the IC50 was determined as 5.8 µM.

Turning to `CCCCc1nc(Cl)c(COC(C)=O)n1Cc1ccc(NC(=O)c2ccccc2C(=O)O)cc1` [Example 10], on AII receptor (setting [1]), the half-inhibitory concentration (IC50) was determined as 0.19 µM.

As for `CCCCc1nc(Cl)c(COC(C)=O)n1Cc1ccc(C(=O)O)cc1` [Example 20, 5-Acetoxymethyl-2-butyl-1-(4-carboxybenzyl)-4-chloroimidazole], the IC50 at AII receptor (setting [1]) is 5.3 µM.

As to `CCCCc1nc(Cl)c(CC(=O)O)n1Cc1ccc(NS(=O)(=O)C(F)(F)F)cc1` [Example 25], the IC50 at AII receptor (Table 25) worked out at 3.9 µM.

Regarding `CCCCc1nc(Cl)c(CO)n1Cc1ccc(N2C(=O)c3ccccc3C2=O)cc1` [Example 28, 2-Butyl-4-chloro-5-hydroxymethyl-1-(4-N-phthalimidobenzyl)imidazole], the IC50 on AII receptor (Table 25) came out at 8 µM.

For `CCCCc1nc(Cl)c(CC(=O)O)n1Cc1ccc(NC(=O)c2ccccc2NS(=O)(=O)C(F)(F)F)cc1` [Example 31, 2-Butyl-4-chloro-1-[4-((N-trifluoromethanesulfonyl)anthranilamido)benzyl]imidazole-5-acetic acid], the IC50 on AII receptor (Table 25) was 0.64 µM.

As to `CCCCc1nc(Cl)c(CC(=O)O)n1Cc1ccc(NC(=O)c2ccccc2C(=O)O)cc1` [Example 32, 2-Butyl-1-[4-(2-carboxybenzamido)-benzyl]-4-chloroimidazole-5-acetic acid], the IC50 on AII receptor (setting [1]) amounted to 0.43 µM.

Take `CCCCc1nc(Cl)c(CC(=O)OC)n1Cc1ccc(NC(=O)c2cccc(NS(=O)(=O)C(F)(F)F)c2)cc1` [Example 33]: the IC50 on AII receptor (Table 25) is 0.94 µM.

With `CCCCc1nc(Cl)c(Cc2nn[nH]n2)n1Cc1ccc(NC(=O)c2ccccc2NS(=O)(=O)C(F)(F)F)cc1` [Example 52], the IC50 at AII receptor (Table 25) was 1.1 µM.

Take `COCCc1nc(Cl)c(CO)n1Cc1ccc(NC(=O)c2ccccc2NS(=O)(=O)C(F)(F)F)cc1` [Example 56, 4-Chloro-5-hydroxymethyl-2-(2-methoxyethyl)-1-[4-((N-trifluoromethanesulfonyl)anthranilamido)benzyl]imidazole]: the IC50 at AII receptor (Table 25) was 4.4 µM.

Regarding `CCCCCc1nccn1Cc1ccc(NC(=O)c2ccccc2NS(=O)(=O)C(F)(F)F)cc1` [Example 60], the IC50 at AII receptor (Table 25) was 1.2 µM.

With `O=C(Nc1ccc(Cn2ccnc2CC2CCCCC2)cc1)c1ccccc1NS(=O)(=O)C(F)(F)F` [Example 61], the IC50 at AII receptor (Table 25) is 5 µM.

`CCc1nccn1Cc1ccc(NC(=O)c2ccccc2C(=O)O)cc1` [Example 62]: at AII receptor (setting [1]), the half-inhibitory concentration (IC50) was 9.2 µM.

As to `O=C(O)c1ccccc1C(=O)Nc1ccc(Cn2ccnc2CC2CCCCC2)cc1` [Example 71], the IC50 on AII receptor (Table 25) was determined as 2.8 µM.

Take `CCCCc1nc(Cl)c(COC)n1Cc1ccc(C(=O)N[C@@H](Cc2ccccc2)C(=O)O)cc1` [Example 82]: on AII receptor (Table 25), the IC50 worked out at 6.1 µM.

For `CCCCc1nc(Cl)c(COC)n1Cc1ccc(C(=O)N2CCC[C@H]2C(=O)O)cc1` [Example 83], on AII receptor (Table 25), the IC50 turned out to be 6.4 µM.

As for `CCc1nc(Cl)c(CO)n1Cc1ccc(-c2ccccc2C(=O)O)cc1` [Example 107], at AII receptor (Table 25), the IC50 was determined as 1.7 µM.

In the case of `CCCc1nc(Cl)c(CO)n1Cc1ccc(-c2ccccc2-c2nn[nH]n2)cc1` [Example 113], on AII receptor (Table 25), the IC50 was determined as 0.02 µM.

On to `CCCc1nc(C(F)(F)C(F)(F)F)c(CO)n1Cc1ccc(-c2ccccc2-c2nn[nH]n2)cc1` [Example 124F], for which the IC50 at AII receptor (Table 26) is 0.001 µM.

For `CCC=Cc1nc(Cl)c(CO)n1Cc1ccc(-c2ccccc2-c2nnn[nH]2)cc1` [Example 139], the IC50 on AII receptor (Table 26) came out at 0.011 µM.

In the case of `CCCCc1nc(Cl)c(Cn2ccnc2)n1Cc1ccc(C(=O)c2ccccc2C(=O)O)cc1` [Example 205], on AII receptor (setting [1]), the 50% inhibitory concentration (IC50) amounted to 2.5 µM.

Turning to `CCCCc1nc(Cl)c(CN=[N+]=[N-])n1Cc1ccc(C(=O)c2ccccc2C(=O)O)cc1` [Example 206], the half-maximal inhibitory concentration (IC50) at AII receptor (setting [1]) stood at 1.4 µM.

`CCCCc1nc(Cl)c(CNS(=O)(=O)C(F)(F)F)n1Cc1ccc(C(=O)c2ccccc2C(=O)O)cc1` [Example 217, 2-Butyl-1-[4-(2-carboxybenzoyl)benzyl]-4-chloro-5-[(trifluoromethylsulfonamido)methyl]imidazole]: on AII receptor (setting [1]), the IC50 turned out to be 2.7 µM.

Take `CCCCc1nc(Cl)c(/C=C/C(=O)OCC)n1Cc1ccc(NC(=O)c2ccccc2C(=O)O)cc1` [Example 228, 3-[2-Butyl-4-chloro-1-(4-(2-carboxybenzamido)benzyl)imidazol-5-yl]-propenoic acid ethyl ester, E isomer]: the 50% inhibitory concentration (IC50) at AII receptor (Table 25) was 0.53 µM.

Turning to `CCCCc1nc(Cl)c(/C=C/COC(C)=O)n1Cc1ccc(NC(=O)c2ccccc2C(=O)O)cc1` [Example 231, 3-[2-Butyl-4-chloro-1-(4-(2-carboxybenzamido)benzyl)imidazol-5-yl]-3-propen-1-ol acetate, E isomer], the IC50 at AII receptor (Table 25) came out at 0.076 µM.

Regarding `CCCCc1nc(Cl)c(/C=C/CO)n1Cc1ccc(NC(=O)c2ccccc2C(=O)O)cc1` [Example 241], the IC50 on AII receptor (Table 25) came out at 0.17 µM.

For the molecule `CCCCc1nc(Cl)c(/C=C/C(C)O)n1Cc1ccc(NC(=O)c2ccccc2C(=O)O)cc1` (stereo not shown) [Example 243], on AII receptor (Table 25), the IC50 is 0.2 µM.

Regarding `CCCCc1nc(Cl)c(CCCOC(C)=O)n1Cc1ccc(NC(=O)c2ccccc2C(=O)O)cc1` [Example 247], the IC50 at AII receptor (Table 25) amounted to 0.11 µM.

On to `CCCc1nc(-c2ccccc2)c(C=O)n1Cc1ccc(-c2ccccc2C(=O)O)cc1` [Example 322], for which the minimal effective dose at 3 mg/kg with Renal Hypertensive Rats (Table 26, intravenous, 3 mg/kg) is under 3 mg/kg. The molecule also showed a minimal effective dose at 30 mg/kg in the experiment with Renal Hypertensive Rats (Table 26, oral, 30 mg/kg) of under 30 mg/kg.

Consider `CCCCc1nc(CO)c(Cl)n1Cc1ccc(-c2ccccc2-c2n[nH]c(C(F)(F)F)n2)cc1` [Example 341, 2-n-Butyl-5-chloro-4-hydroxy-methyl-1-[(2'-(5-trifluoromethyl-1,2,4-triazol-3-yl)biphenyl-4-yl)methyl]imidazole], for which, in the experiment on Renal Hypertensive Rats (intravenous), the minimal effective dose at 10 mg/kg is under 10 mg/kg. Besides, in the experiment with Renal Hypertensive Rats (oral), the minimal effective dose at 100 mg/kg was under 100 mg/kg.

Regarding `CCCCc1nc(C#N)c(C(N)=O)n1Cc1ccc(-c2ccccc2-c2nnn[nH]2)cc1` [Example 342, 2-n-Butyl-5-carboxamido-4-cyano-1-[(2'-(1H-tetrazol-5-yl)biphenyl-4-yl)methyl]imidazole], the 50% inhibitory concentration (IC50) at AII receptor (Table 26) was found to be 0.037 µM.

`CCCCc1nc(Cl)c(CN2CCN(c3ccccc3OC)CC2)n1Cc1ccc(-c2ccccc2-c2nnn[nH]2)cc1` [Example 354, 2-n-Butyl-4-chloro-5-[(4-(2-methoxyphenyl)piperazin-1-yl)methyl]-1-[(2'-(1H-tetrazol-5-yl)biphenyl-4-yl)methyl]imidazole]: the IC50 at AII receptor (Table 25) and at AII receptor (Table 26) was 0.35 µM in each case.
